According to a melting point compilation (Tetko et al.; mined from patent text by program, amines drawn as free bases though some values may be those of a salt):

Row | SMILES | melting point
1 | O=S1CCN(c2nc(N3CCOCC3)nc(-n3c(C(F)F)nc4ccccc43)n2)CC1 | 225 to 226 °C
2 | Cn1cc(Nc2ccc([N+](=O)[O-])cc2[N+](=O)[O-])cn1 | 149 °C
3 | COC(=O)/C(=C\O)c1ccccc1C | 48 to 49 °C
4 | CC(C)c1ccc(N(Cc2cnn(C)c2)C(=O)C2CCCc3c(O)cccc32)cc1 (stereo unspecified) | 215 °C
5 | COC(=O)NNC(=O)C(F)(F)F | 105 °C
6 | CCNC(=O)[C@@H]1CCCN1C(=O)[C@H](C)NC(=O)OCC | 126 to 128 °C
7 | C=C[C@]1(C)C(=O)N(C)[C@H](C(C)(C)C)N1C(=O)c1ccccc1 | 117 to 118 °C
8 | CCCCSc1nsnc1OC1CCNC1 (stereo unspecified) | 99 to 100 °C
9 | CC(=NO)C12CCCC(C1)C1CCC2C1 (stereo unspecified) | 157 to 158 °C
10 | COc1ccc2c(n1)CC(=O)N2CCCO | 121 to 122 °C
11 | Cc1ccc(S(=O)(=O)N2CCCC2c2ccc(C)cc2C)cc1 (racemic) | 130 °C
12 | FC(F)C(F)(F)Oc1cccc(Nc2nccc(-c3ccc(Cl)cc3)n2)c1 | 133 to 135 °C
13 | CC(=O)Nc1cc2c(c(C)c1C)OC(C)(C)C2 | 163 to 164 °C
14 | N=C(N)NCc1cc(CCC(=O)O)no1 | > 297 °C
15 | CS(=O)(=O)ON=C(Cl)c1ccccc1 | 106 to 108 °C
16 | CC(C)(S)CNC(=O)COCC(=O)O | 81 to 82 °C
17 | COC(=O)c1cc(I)c[nH]1 | 77 to 78 °C
18 | CCCCCCCCCCCCCC(=O)Nc1ccc(C2=NNC(=O)NC2C)cc1 (stereo unspecified) | 206 to 209 °C
19 | [N-]=[N+]=C(C(=O)CCc1ccccc1)C(=O)CCc1ccccc1 | 62.6 to 64 °C
20 | CCCCCn1cc(C(=O)O)c(=O)cc1C | 126 °C
21 | CN1CC(=O)c2c(c3ccccc3n2C)S1(=O)=O | 180 °C
22 | CON=C(Cn1c(=O)ccc2ccccc21)c1ccc(C)cc1 | 129 to 132 °C
23 | CN1CCCC1CNC(=O)c1cc(S(N)(=O)=O)cc2c1OCCO2 (stereo unspecified) | 187 to 188 °C
24 | Cc1c2c(c(-c3ccc(F)cc3)c3c4c(ccc13)OCO4)C(=O)NC2=O | 302 to 304 °C
25 | COC(=O)C12C3C4(C(=O)OC)C1C1(C(=O)OC)C2C3(C(=O)OC)C41Cl (stereo unspecified) | 178 to 180 °C
26 | COc1c2c(c(OC)c(OC)c1OC)CC(CCCCCCC1Cc3c(c(OC)c(OC)c(OC)c3OC)C1)C2 | 100 to 108 °C

Row | SMILES | melting point
27 | CCc1cc(NC(C)=O)cc(CC)n1 | 74 to 78 °C
28 | CC(C)SC(=O)CCS(=O)(=O)C(C)C | 45 to 47 °C
29 | CCCCCCCCCCCC(CC(=O)NC(CCCNC(=O)OCc1ccccc1)COC1CCCCO1)OCc1ccccc1 (stereo unspecified) | 84 to 86 °C
30 | CN(C)CCC1(c2ccccc2)CCc2ccccc2C1=O (stereo unspecified) | 71 to 72 °C
31 | O=C1c2ccccc2C(=O)N1CC(=O)N1c2ccccc2N(Cc2cccc(OCc3ccccc3)c2)C(=O)[C@H]2CCC[C@H]21 (relative stereo) | 196 to 198 °C
32 | CC(C)N(CCN(C(=O)N(C)C)c1cccc(N)n1)C(C)C | 86 to 88 °C
33 | Oc1ccc(CCCC2OCCO2)cc1 | 67 to 68 °C
34 | N#Cc1ccc(C(=O)c2ccc(S)cc2)cc1 | 156 °C
35 | CC(C)C1(C(C)C)C(=O)N=C2c3ccccc3C(=O)N21 | 146 to 148 °C
36 | COc1ccc(NC(=O)c2ccc(Br)o2)cc1N1CCN(C)CC1 | 125 to 127 °C
37 | COc1ccc2c(c1[N+](=O)[O-])CNCC(=O)N2 | 220 to 222 °C
38 | CCC(Sc1ccc(OC)c(Cl)c1Cl)C(=O)O (stereo unspecified) | 143 to 145 °C
39 | O=C1CCCCCC1C(C[N+](=O)[O-])c1ccc(OCc2ccccc2)cc1 (racemic) | 120 to 121 °C
40 | CN(C)C(=O)c1cc(Cl)ccc1N | 97 to 98 °C
41 | O=C(Nc1ccc(CN2CCCCC2)cc1)C1=Cc2cc(C3CCCCC3)ccc2CC1 | 180 to 181 °C
42 | O=C1c2cnc(N3CCN(Cc4ccccc4)CC3)nc2CN1C1CCCCC1 | 176 to 178 °C
43 | O=C(CNC1CCCCC1)Nc1ccc(C(=O)N2CCCCc3ccccc32)cc1 | 139 to 142 °C
44 | Oc1ccccc1C=NNc1nc(C(Cl)(Cl)Cl)ns1 | 204 to 205 °C
45 | COc1ccc(C2=CCN(CCCN3c4cccc5cccc(c45)S3(=O)=O)CC2)cc1 | 178 °C
46 | COC(=O)Nc1nc(OC)cc(OC)n1 | 81 to 83 °C
47 | S=C1CN=C(c2ccccn2)c2cc(I)ccc2N1 | 242 °C
48 | Fc1ccc(F)c(CN2CCNc3ncc(-c4cnc(N5CCOCC5)nc4)cc32)c1Cl | 250 to 251 °C
49 | O=c1ccccn1CCCn1ccccc1=O | 132 °C
50 | O=C1Nc2cc(Cl)ccc2N[C@H]1Cc1ccccc1 | 185 °C
51 | Cc1cc(O)ccc1N=Cc1ccccc1O | 95 to 97 °C
52 | CC1CC(c2cc3cccc(F)c3s2)CCN1 (stereo unspecified) | 45 to 47 °C

Other lines, results leading:

Row | melting point | SMILES
53 | 76 to 80 °C | CCCCc1oc2ccc([N+](=O)[O-])cc2c1C(=O)c1ccc(OCCCO)cc1
54 | 248 to 250 °C | ON=c1cc(-c2cn3cccc3cn2)oc2ccc(OCCc3ccc(F)cc3)cc12
55 | 76 °C | CC(=O)c1ccc(CCC(=O)O)c(C(=O)O)c1
56 | 198 to 199 °C | Cc1ccc(Sc2cncc3sc(C(N)=O)cc23)cc1
57 | > 230 °C | Cc1cc2c(cc1Cl)N(C(=O)Nc1ccncc1)CC2
58 | 115 to 117 °C | COCCN(C1CC(C)(C)Oc2ccc(O)cc21)S(C)(=O)=O (stereo unspecified)
59 | 208 to 209 °C | CCOC(=O)NC(=O)Nc1ccc(Cl)cc1C(=O)c1ccccc1F
60 | 130 °C | CCOC(=O)c1c(N2CCN(C(=O)c3cccs3)CC2)c2cc(F)cnc2n(Cc2ccccc2)c1=O
61 | 215 to 217 °C | Cc1ccc(OC2CCN(C(=O)C(=O)Nc3ccc4[nH]c(=O)sc4c3)CC2)cc1
62 | 198 to 200 °C | CCOC(=O)c1cn(C2CC2)c2cc(-c3cc(C)nc(C)c3)c(F)cc2c1=O
63 | 180 °C | Cc1ncc(COC(=O)c2ccncc2)cc1O
64 | 215 to 216 °C | Cc1nc2nc(S(=O)(=O)Nc3c(Cl)cccc3Cl)nn2cc1Br
65 | 145 to 150 °C | COCc1cnc2c(NC(=O)c3c(Cl)cccc3Cl)cccc2c1-n1ccnc1
66 | 244 to 245 °C | Cc1oc(-c2ccccc2)nc1C(=O)COc1ccc(C=C2SC(=O)NC2=O)cc1
67 | 124 to 126 °C | CC(=O)c1ccc(OCCCOc2cc(N)c(C)cc2Br)c(CCC(F)(F)F)c1O
68 | 175 to 176 °C | CC(C)C1Sc2ccccc2N(CC(=O)O)C1=S (stereo unspecified)
69 | 104 to 106 °C | Cc1cccc(-c2[nH]c(C(C)C)nc2-c2cccc(-c3ccc(S(C)(=O)=O)cc3)c2)n1
70 | 99 to 100 °C | CCCCCCCCCCCCCCCc1cccc(OCC)c1C1NC(=O)NC(C)=C1C(=O)OCC (stereo unspecified)
71 | 123 to 124 °C | COc1cc(OC)cc(C2=N[C@H]3CCN(C)C[C@H]3c3ccccc32)c1 (relative stereo)
72 | 136 to 137 °C | C=C(COc1ccc(C(=O)CCC(=O)O)cc1)COc1ccc(C(C)=O)c(O)c1CCC
73 | 91 to 97 °C | CN1C(=O)C(c2ccc(OC(F)(F)F)c(F)c2)(c2ccc(F)c(-c3cncc(F)c3)c2)N=C1N (stereo unspecified)
74 | 126 °C | CCOC(=O)C(=O)Nc1ccc(C)cc1[N+](=O)[O-]
75 | 129 °C | Cc1ccc(S(=O)(=O)N2[C@@H](CCO)CC[C@H]2c2ccc(F)cc2)cc1 (racemic)
76 | 68 to 70 °C | COc1cc(N)c(Cl)cc1C(=O)NCC1CCN(CCCCCCSc2ccccc2)CC1
77 | 152 to 153 °C | CN=C1SCC(O)(c2ccc(Cl)c(S(=O)(=O)NCc3cccnc3)c2)N1C (stereo unspecified)

Row | melting point | SMILES
78 | 157 to 159 °C | Cc1cc([C@@H]2C[C@H]2c2nc3ccccc3n2C)cc(-n2nc(C)nc2C)n1 (relative stereo)
79 | 99 to 100 °C | COc1cc(C=O)ccc1OCC(=O)c1cc(C(C)(C)C)c(O)c(C(C)(C)C)c1
80 | 234 to 236 °C | CCCCc1ncc(/C=C(\Cc2cccs2)C(=O)O)n1Cc1ccc(C(=O)O)cc1Cl
81 | 133 °C | COC=C(C(=O)OC)c1scnc1COc1ccccc1
82 | 208 to 210 °C | CCN(CC)CCNC(=O)c1cccc2c(=O)c3ccc(I)cc3[nH]c12
83 | 124 to 125 °C | O=C(Oc1cc(OC(=O)c2ccccc2)c(Cl)cn1)c1ccccc1
84 | 85 to 88 °C | COc1ccc2oc(C(=O)c3cc(F)ccc3N3CCOCC3)cc2c1
85 | 201 to 202 °C | COC(=O)C(CC1(C)C(=O)Nc2ccccc21)NC(=O)c1ccc(Cl)cc1 (stereo unspecified)
86 | 110 to 111 °C | CCCc1c(OCCOCCOCCOc2ccc3ccc(OCC(=O)O)cc3c2C(C)=O)ccc(C(C)=O)c1O
87 | 186 °C | COc1ccccc1Sc1c(Cl)ncnc1NS(=O)(=O)c1ccc(C(C)(C)C)cc1
88 | 124 to 125 °C | CCOC(=O)N=C1N(c2c(C)cccc2C)CC(C)N1c1c(C)cccc1C (stereo unspecified)
89 | 183 to 185 °C | COc1ccc(COc2ccc(CSc3ccc(OCC(=O)O)c4c3CCC4)cc2)cc1
90 | 69 to 72 °C | CCOC(=O)c1sc(OCC)nc1-c1cccc(C(F)(F)F)c1
91 | 139 to 142 °C | CCCOCCOc1ccc(-c2ccc3c(c2)C=C(C(=O)O)CCN3Cc2ccccc2)cc1
92 | 230 °C | O=C(O)Cc1cc(C(=O)Cc2ccccc2Cl)ccc1O
93 | 123 to 124 °C | COC(=NS(=O)(=O)c1nc(-c2ccccc2)ns1)C(C)C
94 | 181 to 182 °C | COc1cc(F)cc(-c2ccc3c(c2)C(C)(C)OC(=O)N3)c1
95 | 176 to 178 °C | CCOC(=O)CN1C(=O)[C@@H](N)[C@H](c2ccccc2)Sc2ccccc21
96 | 159 to 160 °C | Cc1cccc(CC(=O)O)c1OCCCc1cn(-c2ccc(C(F)(F)F)cn2)nc1C(C)C
97 | 123 to 124 °C | COc1cc(COc2nn(-c3ccccc3)cc2C=O)ccc1OCc1csc(N2CCCCC2)n1
98 | 165 to 167 °C | CC(C)(C)OC(=O)N1CCN(c2ccc(Nc3nc(N)c(C(=O)c4c(Cl)cccc4Cl)s3)cc2)CC1
99 | 208 to 210 °C | CCOc1cc(Oc2ccc(S(C)(=O)=O)nc2)cc2cc(C3=NCC(CC(=O)O)S3)[nH]c12 (stereo unspecified)
100 | 173 to 174 °C | O=C(O)CCCN(C(=O)c1ccc(Cl)cc1)c1cccc2ccccc12
101 | 308 to 309 °C | Nc1c(F)c(N2CCC(n3ccnn3)C2)c(F)c2c1c(=O)c(C(=O)O)cn2-c1ccc(F)cc1F (stereo unspecified)
